Reference: patent US20230048132A1, “CYCLIN-DEPENDENT KINASE INHIBITORS” (SPV THERAPEUTICS INC., priority 2018, published 2023)

Legend:
[1] = tested on: LXFE Calu-1; test: 2D cell proliferation assay (CellTiter-Blue); assay type: cell-based; conditions: Homo sapiens, 72 h, three days of treatment, read-out: abs. IC50
Procedure, shortened: (§1)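 Three-day 2D growth inhibition: cells seeded at 4,000-60,000/well, rested 24 h, then dosed with five full-log concentrations up to 100 μM. Metabolic conversion of CellTiter-Blue was measured fluorometrically. IC50 values come from 4-parameter sigmoidal fits of T/C% against untreated cells.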

[2] = tested on: LXFL NCl-H460; test: 2D cell proliferation assay (CellTiter-Blue); assay type: cell-based; conditions: 72 h, three days of treatment, read-out: abs. IC50
Procedure, shortened: as §1

[3] = tested on: PAXF BxPC-3; test: 2D cell proliferation assay (CellTiter-Blue); assay type: cell-based; conditions: Homo sapiens, 72 h, three days of treatment, read-out: abs. IC50
Procedure, shortened: as §1

[4] = tested on: LIXFH Hep G2; test: 2D cell proliferation assay (CellTiter-Blue); assay type: cell-based; conditions: Homo sapiens, HepG2, 72 h, three days of treatment, read-out: abs. IC50
Procedure, shortened: as §1

[5] = tested on: UXF MFE-319; test: 2D cell proliferation assay (CellTiter-Blue); assay type: cell-based; conditions: 72 h, three days of treatment, read-out: abs. IC50
Procedure, shortened: as §1

[6] = tested on: CNXF U-87 MG; test: 2D cell proliferation assay (CellTiter-Blue); assay type: cell-based; conditions: Homo sapiens, 72 h, three days of treatment, read-out: abs. IC50
Procedure, shortened: as §1

[7] = tested on: MAXFTN ZR-75-1 (ER+); test: 2D cell proliferation assay (CellTiter-Blue); assay type: cell-based; conditions: Homo sapiens, 72 h, three days of treatment, read-out: abs. IC50
Procedure, shortened: (§2)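 Cells were seeded at 4,000-60,000 per well, allowed 24 h to recover, then exposed in duplicate to five full-log concentrations up to 100 μM for three days at 37° C, 5% CO2. Viability was read by CellTiter-Blue fluorescence (ex 570 nm, em 600 nm) as T/C% versus untreated controls; IC50 from 4-parameter fit.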

[8] = tested on: LEXFCM K-562; test: 2D cell proliferation assay (CellTiter-Blue); assay type: cell-based; conditions: Homo sapiens, K562, 72 h, three days of treatment, read-out: abs. IC50
Procedure, shortened: as §1

[9] = tested on: PRXF VCap; test: 2D cell proliferation assay (CellTiter-Blue); assay type: cell-based; conditions: Homo sapiens, 72 h, three days of treatment, read-out: abs. IC50
Procedure, shortened: as §1

[10] = tested on: MEXF WM-266-4; test: 2D cell proliferation assay (CellTiter-Blue); assay type: cell-based; conditions: Homo sapiens, 72 h, three days of treatment, read-out: abs. IC50
Procedure, shortened: as §1

[11] = tested on: MAXFTN MDA-MB-453; test: 2D cell proliferation assay (CellTiter-Blue); assay type: cell-based; conditions: Homo sapiens, 72 h, three days of treatment, read-out: abs. IC50
Procedure, shortened: as §1

[12] = tested on: LYXFNH U-937; test: 2D cell proliferation assay (CellTiter-Blue); assay type: cell-based; conditions: Homo sapiens, 72 h, three days of treatment, read-out: abs. IC50
Procedure, shortened: as §1

[13] = tested on: MEXF A2058; test: 2D cell proliferation assay (CellTiter-Blue); assay type: cell-based; conditions: Homo sapiens, 72 h, three days of treatment, read-out: abs. IC50
Procedure, shortened: as §1

[14] = tested on: GXA MKN45; test: 2D cell proliferation assay (CellTiter-Blue); assay type: cell-based; conditions: Homo sapiens, MKN-45, 72 h, three days of treatment, read-out: abs. IC50
Procedure, shortened: as §1

[15] = tested on: OVXF SK-OV-3; test: 2D cell proliferation assay (CellTiter-Blue); assay type: cell-based; conditions: Homo sapiens, 72 h, three days of treatment, read-out: abs. IC50
Procedure, shortened: as §1

[16] = tested on: CXF HCT-15; test: 2D cell proliferation assay (CellTiter-Blue); assay type: cell-based; conditions: Homo sapiens, 72 h, three days of treatment, read-out: abs. IC50
Procedure, shortened: as §1

[17] = tested on: BXF 5637; test: 2D cell proliferation assay (CellTiter-Blue); assay type: cell-based; conditions: 72 h, three days of treatment, read-out: abs. IC50
Procedure, shortened: as §1

[18] = tested on: CXF COLO 205; test: 2D cell proliferation assay (CellTiter-Blue); assay type: cell-based; conditions: Homo sapiens, 72 h, three days of treatment, read-out: abs. IC50
Procedure, shortened: as §1

[19] = tested on: LXFA A549; test: 2D cell proliferation assay (CellTiter-Blue); assay type: cell-based; conditions: Homo sapiens, 72 h, three days of treatment, read-out: abs. IC50
Procedure, shortened: as §2

[20] = tested on: UXF EFE-184; test: 2D cell proliferation assay (CellTiter-Blue); assay type: cell-based; conditions: Homo sapiens, 72 h, three days of treatment, read-out: abs. IC50
Procedure, shortened: as §1

[21] = tested on: MAXFHER BT-474; test: 2D cell proliferation assay (CellTiter-Blue); assay type: cell-based; conditions: Homo sapiens, 72 h, three days of treatment, read-out: abs. IC50
Procedure, shortened: as §1

[22] = tested on: PRXF 22Rv1; test: 2D cell proliferation assay (CellTiter-Blue); assay type: cell-based; conditions: Homo sapiens, 72 h, three days of treatment, read-out: abs. IC50
Procedure, shortened: as §1

[23] = tested on: CXF Caco-2; test: 2D cell proliferation assay (CellTiter-Blue); assay type: cell-based; conditions: Homo sapiens, 72 h, three days of treatment, read-out: abs. IC50
Procedure, shortened: as §1

[24] = tested on: LIXAH SNU-398; test: 2D cell proliferation assay (CellTiter-Blue); assay type: cell-based; conditions: Homo sapiens, 72 h, three days of treatment, read-out: abs. IC50
Procedure, shortened: as §1

[25] = tested on: MAXFHER SK-BR-3; test: 2D cell proliferation assay (CellTiter-Blue); assay type: cell-based; conditions: Homo sapiens, 72 h, three days of treatment, read-out: abs. IC50
Procedure, shortened: as §1

[26] = tested on: LIXFH HEP-3B; test: 2D cell proliferation assay (CellTiter-Blue); assay type: cell-based; conditions: Homo sapiens, Hep3B, 72 h, three days of treatment, read-out: abs. IC50
Procedure, shortened: as §1

[27] = tested on: LEXFAM MV4-11; test: 2D cell proliferation assay (CellTiter-Blue); assay type: cell-based; conditions: Homo sapiens, 72 h, three days of treatment, read-out: abs. IC50
Procedure, shortened: as §2

[28] = tested on: LYXFNH Daudi; test: 2D cell proliferation assay (CellTiter-Blue); assay type: cell-based; conditions: Homo sapiens, 72 h, three days of treatment, read-out: abs. IC50
Procedure, shortened: as §1

[29] = tested on: LEXFAL MOLT-4; test: 2D cell proliferation assay (CellTiter-Blue); assay type: cell-based; conditions: Homo sapiens, 72 h, three days of treatment, read-out: abs. IC50
Procedure, shortened: as §1

[30] = Pharmacokinetics after IV bolus; assay type: in vivo; conditions: rat, plasma; rats; IV bolus 30 mg/kg; N = 3
Method: Nonclinical pharmacokinetic (PK) parameters of lead CDK4/6/9 inhibitors were determined in an intravenous (IV) and oral study (p.o.) conducted in rats. Lead compounds were each administered as a single oral dose at 100 mg/kg or by IV bolus via the caudal vein at the dose of 30 mg/kg. Blood samples were collected at 0.25, 0.5, 1, 2, 4, 8, 12, and 24 hours post i.v. administration, and at 1, 2, 4, 8, 24 and 48 hours post oral administration. Plasma was processed for drug concentration analysis using a validated LCMS/MS method, and PK parameters were calculated by using WinNonlin.

Compound	IC50 [1]	IC50 [2]	IC50 [3]	IC50 [4]	IC50 [5]	IC50 [6]	IC50 [7]	IC50 [8]	IC50 [9]	IC50 [10]	IC50 [11]	IC50 [12]	IC50 [13]	IC50 [14]	IC50 [15]	IC50 [16]	IC50 [17]	IC50 [18]	IC50 [19]	IC50 [20]	also measured
CN(C)[C@H]1CCN(c2ccc(Nc3ncc4c(n3)N(C3CCCC3)C(=O)[C@]3(CCNC3=O)C4)nc2)C1 [Example D178, (S)-8-cyclopentyl-2-((5-((S)-3-(dimethylamino)pyrrolidin-1-yl)pyridin-2-yl)amino)-5,8-dihydro-7H-spiro[pyrido[2,3-d]pyrimidine-6,3′-pyrrolidine]-2′,7-dione]	78.6 µM	63.4 µM	12.1 µM	5.31 µM	11.3 µM	75.5 µM	88.2 µM	75.7 µM	21.1 µM	74.4 µM	2 µM	≤ 0.01 µM	60.4 µM	47.3 µM	76.7 µM	29.5 µM	34.3 µM	6.22 µM	69.9 µM	22.6 µM	IC50 [21]: 67.9 µM; IC50 [22]: 0.447 µM; IC50 [23]: ≥ 100 µM; IC50 [24]: 0.608 µM; IC50 [25]: 31.9 µM; IC50 [26]: 67.8 µM; IC50 [27]: ≤ 0.01 µM
CC(C)N1CCN(c2ccc(Nc3ncc4c(n3)N(C3CCCC3)C(=O)[C@]3(CCNC3=O)C4)nc2)CC1 [Example D154, (S)-8-cyclopentyl-2-((5-(4-isopropylpiperazin-1-yl)pyridin-2-yl)amino)-5,8-dihydro-7H-spiro[pyrido[2,3-d]pyrimidine-6,3′-pyrrolidine]-2′,7-dione]	48.7 µM	35.3 µM	2.87 µM	8.14 µM	5.43 µM	≥ 100 µM	≥ 100 µM	84.4 µM	25.4 µM	81.3 µM	7.68 µM	≤ 0.01 µM	14.5 µM	47.8 µM	59.9 µM	22.1 µM	17.6 µM	4.76 µM	79.2 µM	34.6 µM	IC50 [21]: 81.1 µM; IC50 [22]: 1.42 µM; IC50 [23]: ≥ 100 µM; IC50 [24]: 6.84 µM; IC50 [25]: 13.8 µM; IC50 [26]: 78.9 µM; IC50 [27]: ≤ 0.01 µM
O=C1NCC[C@@]12Cc1cnc(Nc3ccc(N4CCNCC4)cc3F)nc1N(C1CCCC1)C2=O [Example D146, (S)-8-cyclopentyl-2-((2-fluoro-4-(piperazin-1-yl)phenyl)amino)-5,8-dihydro-7H-spiro[pyrido[2,3-d]pyrimidine-6,3′-pyrrolidine]-2′,7-dione]	5.96 µM	2.13 µM	0.756 µM	0.341 µM	1.14 µM	10.8 µM	9.03 µM	4.94 µM	1.26 µM	6.22 µM	0.327 µM	≤ 0.01 µM	1.53 µM	3.12 µM	8.26 µM	2.05 µM	1.49 µM	0.577 µM	3.41 µM	2.08 µM	IC50 [28]: 0.162 µM; IC50 [21]: 5.55 µM; IC50 [22]: 0.138 µM; IC50 [23]: 23 µM; IC50 [24]: 0.251 µM; IC50 [25]: 1.02 µM; IC50 [26]: 3.67 µM; IC50 [27]: ≤ 0.01 µM
CN(C)CCOc1ccc(Nc2ncc3c(n2)N(C2CCCC2)C(=O)[C@]2(CCNC2=O)C3)cc1 [Example D179, (S)-8-cyclopentyl-2-((4-(2-(dimethylamino)ethoxy)phenyl)amino)-5,8-dihydro-7H-spiro[pyrido[2,3-d]pyrimidine-6,3′-pyrrolidine]-2′,7-dione]	1.25 µM	0.274 µM	0.116 µM	0.037 µM	0.144 µM	≥ 100 µM	0.409 µM	0.355 µM	0.037 µM	0.272 µM	0.057 µM	≤ 0.01 µM	0.174 µM	0.112 µM	0.772 µM	1.41 µM	0.143 µM	0.101 µM	3.31 µM	0.244 µM	IC50 [29]: 0.177 µM; IC50 [21]: 0.125 µM; IC50 [22]: 0.021 µM; IC50 [23]: ≥ 100 µM; IC50 [24]: 0.025 µM; IC50 [25]: 0.328 µM; IC50 [26]: 0.171 µM; IC50 [27]: ≤ 0.01 µM; Cmax [30]: 6200 ng/mL; clearance [30]: 38.3 mL/min/kg; half-life [30]: 2.26 h
